Laboratory results published in patent publication US4349546A, “D-Allose derivative and preparation method therefor” (Wakamoto Pharmaceutical Co., Ltd., priority 1980, dated 1982).

Legend:
Leukemia L-1210 cells = test: Antileukemia test, L-1210 (Test Example 1); type: in vivo, CDF mice; conditions: for Number of survivals: 60 days
Protocol: (1) Test animals: About 6-week old CDF mice each weighing 22±1 g; one group comprising 7 male mice.
1×10^5 Leukemia L-1210 cells per mouse were implanted into the abdomen of each mouse. After 24 hours, a given amount of CNUA dissolved in isotonic sodium chloride solution was administered to the mice in through three different methods, i.e. intraperitoneal administration, intravenous administration and peroral administration. The rate of apothanacia (%) and number of survivals after 60 days were examined.
^a Symbols in the column of "Method of Administration" have the
ip: Intraperitoneal administration,
iv: Intravenous administration,
po: Peroral administration,
day 1: A given amount of CNUA was administered once 24 hours after the
day 1-3: Continuous administration once a day for three days subsequently
^b Rate of apothanasia % (ILS) was calculated according to the
^c Number of survivals means the number of mice which survived for 60
days or longer in the group consisting of the 7 mice tested.

[1] = test system: Lewis lung carcinoma cells; test: Test of therapeutical effects on Lewis lung carcinoma (Test Example 3); type: in vivo, BDF mice; conditions: for Number of survivals: 60 days
Text: (1) Test animals: About 6-week old BDF mice each weighing 22±1 g; one group comprising 7 male mice.
5×10^5 Lewis lung carcinoma cells per mouse were implanted under the skin of each mouse. […] The rate of apothanasia and number of survivals after 60 days were examined.
*"day 1-9" in the column of "Method of Administration" indicates
continuous administration once/day for 9 days subsequently to "day 1".

β-16 melanoma cells = test: Test of therapeutical effects on melanoma (Test Example 4); type: in vivo, BDF mice; conditions: for Number of survivals: 60 days
lung autotumor = test: Inhibition of mouse lung autotumor induced by ethylnitrosourea (Test Example 5); type: in vivo, DDY mice
Protocol: 100 mg/kg of ethylnitrosourea was given intraperitoneally to DDY mice 3 to 4 days prior to delivery. After delivery, mice born with lung autotumor were used as the test animals. One group consisted of 10 mice.
Four weeks after birth, a given amount of CNUA was administered in two ways, i.e., intravenous administration and peroral administration at predetermined times. Nine weeks after, the area of the tumor of each mouse was measued and the inhibition rate (%) was calculated.

Toxicity tests (LD50) = conditions: mouse, in vivo, DDY male mice
Protocol: CNUA dissolved in isotonic sodium chloride solution was given to DDY male mice each weighing 20 to 22.5 g by intraperitoneal administration, intravenous administration and peroral administration, and LD50 values were determined.

[2] = test system: Peripheral leukocyte count; test: Effects on peripheral leukocyte count (Test Example 6); type: in vivo, DDY mice
Text: Comparison of effects of CNUA and Me-CCNU* on peripheral leukocyte count:
Six-week old DDY mice each weighing 22±1 g; one group comprising 5 male mice.
CNUA and Me-CCNU were given intraperitoneally on the first day. The, blood was drawn from a tail vein at time intervals to determine the leukocyte count. The samples were used in the form of a solution in an isotonic sodium chloride solution.

O=NN(CCCl)C(=O)N[C@@H]1[C@H](O)[C@@H](CO)OC(O)[C@@H]1O (stereo partly drawn) [CNUA, 3-[3-(2-chloroethyl)-3-nitrosoureido]-3-deoxy-D-allose]
ILS (rate of apothanasia) (Leukemia L-1210 cells; 5 mg/kg/day, iv, day 1): 29%
ILS (rate of apothanasia) (Leukemia L-1210 cells; 10 mg/kg/day, iv, day 1): 43%
ILS (rate of apothanasia) (Leukemia L-1210 cells; 11.3 mg/kg/day, ip, day 1): 86%
ILS (rate of apothanasia) (Leukemia L-1210 cells; 11.3 mg/kg/day, ip, day 1-3): 143%
ILS (rate of apothanasia) (Leukemia L-1210 cells; 20 mg/kg/day, iv, day 1): 86%
ILS (rate of apothanasia) (Leukemia L-1210 cells; 22.5 mg/kg/day, ip, day 1): 157%
ILS (rate of apothanasia) (Leukemia L-1210 cells; 22.5 mg/kg/day, ip, day 1-3): > 757%
ILS (rate of apothanasia) (Leukemia L-1210 cells; 40 mg/kg/day, iv, day 1): > 757%
ILS (rate of apothanasia) (Leukemia L-1210 cells; 45 mg/kg/day, ip, day 1): > 757%
ILS (rate of apothanasia) (Leukemia L-1210 cells; 45 mg/kg/day, ip, day 1-3): > 757%
ILS (rate of apothanasia) (Leukemia L-1210 cells; 50 mg/kg/day, iv, day 1): 400%
ILS (rate of apothanasia) (Leukemia L-1210 cells; 60 mg/kg/day, ip, day 1): > 757%
ILS (rate of apothanasia) (Leukemia L-1210 cells; 60 mg/kg/day, ip, day 1-3): > 757%
ILS (rate of apothanasia) (Leukemia L-1210 cells; 100 mg/kg/day, po, day 1): 86%
ILS (rate of apothanasia) (Leukemia L-1210 cells; 200 mg/kg/day, po, day 1): 100%
ILS (rate of apothanasia) (Leukemia L-1210 cells; 300 mg/kg/day, po, day 1): 100%
ILS (rate of apothanasia) (Leukemia L-1210 cells; 400 mg/kg/day, po, day 1): 57%
Number of survivals (Leukemia L-1210 cells; 5 mg/kg/day, iv, day 1): 0/7
Number of survivals (Leukemia L-1210 cells; 10 mg/kg/day, iv, day 1): 0/7
Number of survivals (Leukemia L-1210 cells; 11.3 mg/kg/day, ip, day 1): 1/7
Number of survivals (Leukemia L-1210 cells; 11.3 mg/kg/day, ip, day 1-3): 1/7
Number of survivals (Leukemia L-1210 cells; 20 mg/kg/day, iv, day 1): 1/7
Number of survivals (Leukemia L-1210 cells; 22.5 mg/kg/day, ip, day 1): 3/7
Number of survivals (Leukemia L-1210 cells; 22.5 mg/kg/day, ip, day 1-3): 5/7
Number of survivals (Leukemia L-1210 cells; 40 mg/kg/day, iv, day 1): 4/7
Number of survivals (Leukemia L-1210 cells; 45 mg/kg/day, ip, day 1): 7/7
Number of survivals (Leukemia L-1210 cells; 45 mg/kg/day, ip, day 1-3): 5/7
Number of survivals (Leukemia L-1210 cells; 50 mg/kg/day, iv, day 1): 2/7
Number of survivals (Leukemia L-1210 cells; 60 mg/kg/day, ip, day 1): 4/7
Number of survivals (Leukemia L-1210 cells; 60 mg/kg/day, ip, day 1-3): 4/7
Number of survivals (Leukemia L-1210 cells; 100 mg/kg/day, po, day 1): 0/7
Number of survivals (Leukemia L-1210 cells; 200 mg/kg/day, po, day 1): 3/7
Number of survivals (Leukemia L-1210 cells; 300 mg/kg/day, po, day 1): 2/7
Number of survivals (Leukemia L-1210 cells; 400 mg/kg/day, po, day 1): 2/7
ILS (rate of apothanasia) ([1]; 2.23 mg/kg/day, ip, day 1-9): 4%
ILS (rate of apothanasia) ([1]; 4.45 mg/kg/day, ip, day 1-9): 21%
ILS (rate of apothanasia) ([1]; 5 mg/kg/day, ip, day 1): 0%
ILS (rate of apothanasia) ([1]; 6.67 mg/kg/day, ip, day 1-9): 29%
ILS (rate of apothanasia) ([1]; 10 mg/kg/day, ip, day 1): 0%
ILS (rate of apothanasia) ([1]; 15 mg/kg/day, iv, day 1): 35%
ILS (rate of apothanasia) ([1]; 20 mg/kg/day, ip, day 1): 68%
ILS (rate of apothanasia) ([1]; 30 mg/kg/day, iv, day 1): 80%
ILS (rate of apothanasia) ([1]; 40 mg/kg/day, ip, day 1): > 172%
ILS (rate of apothanasia) ([1]; 40 mg/kg/day, iv, day 1): > 200%
ILS (rate of apothanasia) ([1]; 50 mg/kg/day, iv, day 1): > 200%
Number of survivals ([1]; 2.23 mg/kg/day, ip, day 1-9): 0/7
Number of survivals ([1]; 4.45 mg/kg/day, ip, day 1-9): 1/7
Number of survivals ([1]; 5 mg/kg/day, ip, day 1): 0/7
Number of survivals ([1]; 6.67 mg/kg/day, ip, day 1-9): 0/7
Number of survivals ([1]; 10 mg/kg/day, ip, day 1): 0/7
Number of survivals ([1]; 15 mg/kg/day, iv, day 1): 0/7
Number of survivals ([1]; 20 mg/kg/day, ip, day 1): 2/7
Number of survivals ([1]; 30 mg/kg/day, iv, day 1): 1/7
Number of survivals ([1]; 40 mg/kg/day, ip, day 1): 6/7
Number of survivals ([1]; 40 mg/kg/day, iv, day 1): 6/7
Number of survivals ([1]; 50 mg/kg/day, iv, day 1): 5/7
ILS (rate of apothanasia) (β-16 melanoma cells; 1.12 mg/kg/day, day 1-9, ip): 10%
ILS (rate of apothanasia) (β-16 melanoma cells; 2.23 mg/kg/day, day 1-9, ip): 25%
ILS (rate of apothanasia) (β-16 melanoma cells; 4.45 mg/kg/day, day 1-9, ip): 30%
ILS (rate of apothanasia) (β-16 melanoma cells; 5 mg/kg/day, day 1, ip): 0%
ILS (rate of apothanasia) (β-16 melanoma cells; 6.67 mg/kg/day, day 1-9, ip): 35%
ILS (rate of apothanasia) (β-16 melanoma cells; 10 mg/kg/day, day 1, ip): 16%
ILS (rate of apothanasia) (β-16 melanoma cells; 20 mg/kg/day, day 1, ip): 48%
ILS (rate of apothanasia) (β-16 melanoma cells; 20 mg/kg/day, day 1, iv): 65%
ILS (rate of apothanasia) (β-16 melanoma cells; 40 mg/kg/day, day 1, ip): 60%
ILS (rate of apothanasia) (β-16 melanoma cells; 40 mg/kg/day, day 1, iv): 155%
ILS (rate of apothanasia) (β-16 melanoma cells; 60 mg/kg/day, day 1, iv): 35%
Number of survivals (β-16 melanoma cells; 1.12 mg/kg/day, day 1-9, ip): 0/7
Number of survivals (β-16 melanoma cells; 2.23 mg/kg/day, day 1-9, ip): 0/7
Number of survivals (β-16 melanoma cells; 4.45 mg/kg/day, day 1-9, ip): 0/7
Number of survivals (β-16 melanoma cells; 5 mg/kg/day, day 1, ip): 0/7
Number of survivals (β-16 melanoma cells; 6.67 mg/kg/day, day 1-9, ip): 0/7
Number of survivals (β-16 melanoma cells; 10 mg/kg/day, day 1, ip): 0/7
Number of survivals (β-16 melanoma cells; 20 mg/kg/day, day 1, ip): 1/7
Number of survivals (β-16 melanoma cells; 20 mg/kg/day, day 1, iv): 1/7
Number of survivals (β-16 melanoma cells; 40 mg/kg/day, day 1, ip): 2/7
Number of survivals (β-16 melanoma cells; 40 mg/kg/day, day 1, iv): 1/7
Number of survivals (β-16 melanoma cells; 60 mg/kg/day, day 1, iv): 0/7
Inhibition rate (lung autotumor; iv, 5 weeks after birth, 40 × 1 mg/kg): 37.2%
Area of tumor (± S.E.) (lung autotumor; iv, 5 weeks after birth, 40 × 1 mg/kg, p < 0.05, control 1.45 ± 0.30): 0.91 ± 0.81 mm^2
Inhibition rate (lung autotumor; iv, 5.6 weeks after birth, 40 × 2 mg/kg): 49.2%
Area of tumor (± S.E.) (lung autotumor; iv, 5.6 weeks after birth, 40 × 2 mg/kg, p < 0.01, control 1.45 ± 0.30): 0.75 ± 0.22 mm^2
Inhibition rate (lung autotumor; iv, 5.7 weeks after birth, 40 × 2 mg/kg): 46.5%
Area of tumor (± S.E.) (lung autotumor; iv, 5.7 weeks after birth, 40 × 2 mg/kg, p < 0.01, control 1.45 ± 0.30): 0.79 ± 0.31 mm^2
Inhibition rate (lung autotumor; po, 5,6,7,8 weeks after birth, 133 × 4 mg/kg): 44.7%
Area of tumor (± S.E.) (lung autotumor; po, 5,6,7,8 weeks after birth, 133 × 4 mg/kg, p < 0.01, control 1.41 ± 0.44): 0.78 ± 0.22 mm^2
Inhibition rate (lung autotumor; po, 5,6,7,8 weeks after birth, 200 × 4 mg/kg): 44.7%
Area of tumor (± S.E.) (lung autotumor; po, 5,6,7,8 weeks after birth, 200 × 4 mg/kg, p < 0.01, control 1.41 ± 0.44): 0.78 ± 0.16 mm^2
Inhibition rate (lung autotumor; po, 5,6,7,8 weeks after birth, 267 × 4 mg/kg): 61.0%
Area of tumor (± S.E.) (lung autotumor; po, 5,6,7,8 weeks after birth, 267 × 4 mg/kg, p < 0.01, control 1.41 ± 0.44): 0.55 ± 0.18 mm^2
Inhibition rate (lung autotumor; po, 5,6,7,8 weeks after birth, 333 × 4 mg/kg): 53.2%
Area of tumor (± S.E.) (lung autotumor; po, 5,6,7,8 weeks after birth, 333 × 4 mg/kg, p < 0.01, control 1.41 ± 0.44): 0.66 ± 0.14 mm^2
LD50 (Toxicity tests (LD50); ip): 65.5 mg/kg
LD50 (Toxicity tests (LD50); iv): 80 mg/kg
LD50 (Toxicity tests (LD50); po): 550 mg/kg
Peripheral leukocyte count after the administration ([2]; 30 mg/kg ip, 2 day): 84.0 % based on the control
Peripheral leukocyte count after the administration ([2]; 30 mg/kg ip, 4 day): 82.2 % based on the control
Peripheral leukocyte count after the administration ([2]; 30 mg/kg ip, 7 day): 85.6 % based on the control
Peripheral leukocyte count after the administration ([2]; 30 mg/kg ip, 10 day): 84.7 % based on the control
Peripheral leukocyte count after the administration ([2]; 30 mg/kg ip, 14 day): 159 % based on the control
Peripheral leukocyte count after the administration ([2]; 60 mg/kg ip, 2 day): 78.2 % based on the control
Peripheral leukocyte count after the administration ([2]; 60 mg/kg ip, 4 day): 60.0 % based on the control
Peripheral leukocyte count after the administration ([2]; 60 mg/kg ip, 7 day): 64.5 % based on the control
Peripheral leukocyte count after the administration ([2]; 60 mg/kg ip, 10 day): 80.0 % based on the control
Peripheral leukocyte count after the administration ([2]; 60 mg/kg ip, 14 day): 100 % based on the control
myelotoxicity ([2]; as compared with Me-CCNU): relatively low myelotoxicity
